Reference: ChEMBL document CHEMBL1132741, “Novel antifungals based on 4-substituted imidazole: a combinatorial chemistry approach to lead discovery and optimization” (Bioorg Med Chem Lett, 2000)
Converted amounts (≈) assume the structure as drawn.

System: Aspergillus fumigatus
Assay: Minimum inhibitory concentration of compound for antifungal activity against Aspergillus fumigatus
Assay type: functional
Details: not given

Compound	MIC [µM]
CCCCOc1ccc(S(=O)(=O)N(Cc2c[nH]cn2)C(CC)C2CCCCC2)cc1 (stereo not given)	> 10
CCCCOc1ccc(S(=O)(=O)N(CCc2ccc(F)cc2)Cc2c[nH]cn2)cc1	> 10
CCCCOc1ccc(S(=O)(=O)N(Cc2c[nH]cn2)C(C(C)C)C(C)C)cc1	> 10
CCCCOc1ccc(S(=O)(=O)N(Cc2cncn2C)C(C)C2CCCCC2)cc1 (stereo not given)	> 10
OC(Cn1cncn1)(Cn1cncn1)c1ccc(F)cc1F [FLUCONAZOLE]	> 10

System: Nakaseomyces glabratus
Assay: Minimum inhibitory concentration of compound for antifungal activity against Candida glabrata
Assay type: functional
Details: not given

Compound	MIC [µM]
CCCCOc1ccc(S(=O)(=O)N(Cc2c[nH]cn2)C(CC)C2CCCCC2)cc1 (stereo not given)	1 (≈ 0.434 µg/mL)
CCCCOc1ccc(S(=O)(=O)N(CCc2ccc(F)cc2)Cc2c[nH]cn2)cc1	10 (≈ 4.32 µg/mL)
CCCCOc1ccc(S(=O)(=O)N(Cc2c[nH]cn2)C(C(C)C)C(C)C)cc1	10 (≈ 4.08 µg/mL)
CCCCOc1ccc(S(=O)(=O)N(Cc2cncn2C)C(C)C2CCCCC2)cc1 (stereo not given)	1 (≈ 0.434 µg/mL)
OC(Cn1cncn1)(Cn1cncn1)c1ccc(F)cc1F [FLUCONAZOLE]	> 10

System: Candida albicans
Assay: Inhibition of ergosterol synthesis as measured in Candida albicans subcellular screen
Assay type: functional
Details: not given

Compound	IC50 [nM]
CCCCOc1ccc(S(=O)(=O)N(CCc2ccc(F)cc2)Cc2c[nH]cn2)cc1	26
CCCCOc1ccc(S(=O)(=O)N(Cc2c[nH]cn2)C(C(C)C)C(C)C)cc1	73

System: Kluyveromyces marxianus
Assay: Minimum inhibitory concentration of compound for antifungal activity against Candida kefyr
Assay type: functional
Details: not given

Compound	MIC [µM]
CCCCOc1ccc(S(=O)(=O)N(Cc2c[nH]cn2)C(CC)C2CCCCC2)cc1 (stereo not given)	< 0.1
CCCCOc1ccc(S(=O)(=O)N(CCc2ccc(F)cc2)Cc2c[nH]cn2)cc1	< 0.1
CCCCOc1ccc(S(=O)(=O)N(Cc2c[nH]cn2)C(C(C)C)C(C)C)cc1	< 0.1
CCCCOc1ccc(S(=O)(=O)N(Cc2cncn2C)C(C)C2CCCCC2)cc1 (stereo not given)	< 0.1
OC(Cn1cncn1)(Cn1cncn1)c1ccc(F)cc1F [FLUCONAZOLE]	1 (≈ 0.306 µg/mL)

System: Candida albicans
Assay: Minimum inhibitory concentration of compound for antifungal activity against Candida albicans 1
Assay type: functional
Details: not given

Compound	MIC [µM]
CCCCOc1ccc(S(=O)(=O)N(Cc2c[nH]cn2)C(CC)C2CCCCC2)cc1 (stereo not given)	> 10
CCCCOc1ccc(S(=O)(=O)N(CCc2ccc(F)cc2)Cc2c[nH]cn2)cc1	> 10
CCCCOc1ccc(S(=O)(=O)N(Cc2c[nH]cn2)C(C(C)C)C(C)C)cc1	> 10
CCCCOc1ccc(S(=O)(=O)N(Cc2cncn2C)C(C)C2CCCCC2)cc1 (stereo not given)	> 10
OC(Cn1cncn1)(Cn1cncn1)c1ccc(F)cc1F [FLUCONAZOLE]	> 10

System: Candida albicans
Assay: Minimum inhibitory concentration of compound for antifungal activity against Candida albicans 2
Assay type: functional
Details: not given

Compound	MIC [µM]
CCCCOc1ccc(S(=O)(=O)N(Cc2c[nH]cn2)C(CC)C2CCCCC2)cc1 (stereo not given)	< 0.1
CCCCOc1ccc(S(=O)(=O)N(CCc2ccc(F)cc2)Cc2c[nH]cn2)cc1	< 0.1
CCCCOc1ccc(S(=O)(=O)N(Cc2c[nH]cn2)C(C(C)C)C(C)C)cc1	< 0.1
CCCCOc1ccc(S(=O)(=O)N(Cc2cncn2C)C(C)C2CCCCC2)cc1 (stereo not given)	< 0.1
OC(Cn1cncn1)(Cn1cncn1)c1ccc(F)cc1F [FLUCONAZOLE]	1 (≈ 0.306 µg/mL)

System: Candida albicans
Assay: Minimum inhibitory concentration of compound for antifungal activity against Candida albicans 4
Assay type: functional
Details: not given

Compound	MIC [µM]
CCCCOc1ccc(S(=O)(=O)N(Cc2c[nH]cn2)C(CC)C2CCCCC2)cc1 (stereo not given)	< 0.1
CCCCOc1ccc(S(=O)(=O)N(CCc2ccc(F)cc2)Cc2c[nH]cn2)cc1	10 (≈ 4.32 µg/mL)
CCCCOc1ccc(S(=O)(=O)N(Cc2c[nH]cn2)C(C(C)C)C(C)C)cc1	< 0.1
CCCCOc1ccc(S(=O)(=O)N(Cc2cncn2C)C(C)C2CCCCC2)cc1 (stereo not given)	10 (≈ 4.34 µg/mL)
OC(Cn1cncn1)(Cn1cncn1)c1ccc(F)cc1F [FLUCONAZOLE]	1 (≈ 0.306 µg/mL)

System: Candida parapsilosis
Assay: Minimum inhibitory concentration of compound for antifungal activity against Candida parapsilosis
Assay type: functional
Details: Lodderomyces parapsilosis

Compound	MIC [µM]
CCCCOc1ccc(S(=O)(=O)N(Cc2c[nH]cn2)C(CC)C2CCCCC2)cc1 (stereo not given)	< 0.1
CCCCOc1ccc(S(=O)(=O)N(CCc2ccc(F)cc2)Cc2c[nH]cn2)cc1	1 (≈ 0.432 µg/mL)
CCCCOc1ccc(S(=O)(=O)N(Cc2c[nH]cn2)C(C(C)C)C(C)C)cc1	0.1 (≈ 0.0408 µg/mL)
CCCCOc1ccc(S(=O)(=O)N(Cc2cncn2C)C(C)C2CCCCC2)cc1 (stereo not given)	0.1 (≈ 0.0434 µg/mL)
OC(Cn1cncn1)(Cn1cncn1)c1ccc(F)cc1F [FLUCONAZOLE]	10 (≈ 3.06 µg/mL)

System: Candida tropicalis
Assay: Minimum inhibitory concentration of compound for antifungal activity against Candida tropicalis
Assay type: functional
Details: not given

Compound	MIC [µM]
CCCCOc1ccc(S(=O)(=O)N(Cc2c[nH]cn2)C(CC)C2CCCCC2)cc1 (stereo not given)	1 (≈ 0.434 µg/mL)
CCCCOc1ccc(S(=O)(=O)N(CCc2ccc(F)cc2)Cc2c[nH]cn2)cc1	< 0.1
CCCCOc1ccc(S(=O)(=O)N(Cc2c[nH]cn2)C(C(C)C)C(C)C)cc1	0.1 (≈ 0.0408 µg/mL)
CCCCOc1ccc(S(=O)(=O)N(Cc2cncn2C)C(C)C2CCCCC2)cc1 (stereo not given)	0.1 (≈ 0.0434 µg/mL)
OC(Cn1cncn1)(Cn1cncn1)c1ccc(F)cc1F [FLUCONAZOLE]	> 10

System: Pichia kudriavzevii
Assay: Minimum inhibitory concentration of compound for antifungal activity against Candida krusei
Assay type: functional
Details: not given

Compound	MIC [µM]
CCCCOc1ccc(S(=O)(=O)N(Cc2c[nH]cn2)C(CC)C2CCCCC2)cc1 (stereo not given)	1 (≈ 0.434 µg/mL)
CCCCOc1ccc(S(=O)(=O)N(CCc2ccc(F)cc2)Cc2c[nH]cn2)cc1	> 10
CCCCOc1ccc(S(=O)(=O)N(Cc2c[nH]cn2)C(C(C)C)C(C)C)cc1	10 (≈ 4.08 µg/mL)
CCCCOc1ccc(S(=O)(=O)N(Cc2cncn2C)C(C)C2CCCCC2)cc1 (stereo not given)	1 (≈ 0.434 µg/mL)
OC(Cn1cncn1)(Cn1cncn1)c1ccc(F)cc1F [FLUCONAZOLE]	> 10

System: Cryptococcus neoformans
Assay: Minimum inhibitory concentration of compound for antifungal activity against Cryptococcus neoformans
Assay type: functional
Details: not given

Compound	MIC [µM]
CCCCOc1ccc(S(=O)(=O)N(Cc2c[nH]cn2)C(CC)C2CCCCC2)cc1 (stereo not given)	1 (≈ 0.434 µg/mL)
CCCCOc1ccc(S(=O)(=O)N(CCc2ccc(F)cc2)Cc2c[nH]cn2)cc1	1 (≈ 0.432 µg/mL)
CCCCOc1ccc(S(=O)(=O)N(Cc2c[nH]cn2)C(C(C)C)C(C)C)cc1	1 (≈ 0.408 µg/mL)
CCCCOc1ccc(S(=O)(=O)N(Cc2cncn2C)C(C)C2CCCCC2)cc1 (stereo not given)	1 (≈ 0.434 µg/mL)
OC(Cn1cncn1)(Cn1cncn1)c1ccc(F)cc1F [FLUCONAZOLE]	10 (≈ 3.06 µg/mL)

System: not listed separately
Assay: Antifungal activity against molds expressed as negative log (pLAD value).
Assay type: functional, mould
Details: not given

Compound	pLADm
CCCCOc1ccc(S(=O)(=O)N(Cc2c[nH]cn2)C(CC)C2CCCCC2)cc1 (stereo not given)	5
CCCCOc1ccc(S(=O)(=O)N(CCc2ccc(F)cc2)Cc2c[nH]cn2)cc1	4.6
CCCCOc1ccc(S(=O)(=O)N(Cc2c[nH]cn2)C(C(C)C)C(C)C)cc1	5
CCCCOc1ccc(S(=O)(=O)N(Cc2cncn2C)C(C)C2CCCCC2)cc1 (stereo not given)	4.8

System: Microsporum canis
Assay: Minimum inhibitory concentration of compound for antifungal activity against Mucosporam canis
Assay type: functional
Details: not given

Compound	MIC [µM]
CCCCOc1ccc(S(=O)(=O)N(Cc2c[nH]cn2)C(CC)C2CCCCC2)cc1 (stereo not given)	1 (≈ 0.434 µg/mL)
CCCCOc1ccc(S(=O)(=O)N(CCc2ccc(F)cc2)Cc2c[nH]cn2)cc1	10 (≈ 4.32 µg/mL)
CCCCOc1ccc(S(=O)(=O)N(Cc2c[nH]cn2)C(C(C)C)C(C)C)cc1	1 (≈ 0.408 µg/mL)
CCCCOc1ccc(S(=O)(=O)N(Cc2cncn2C)C(C)C2CCCCC2)cc1 (stereo not given)	1 (≈ 0.434 µg/mL)
OC(Cn1cncn1)(Cn1cncn1)c1ccc(F)cc1F [FLUCONAZOLE]	10 (≈ 3.06 µg/mL)

System: Trichophyton benhamiae
Assay: Minimum inhibitory concentration of compound for antifungal activity against Trichophyton mentagrophytes
Assay type: functional, Arthroderma benhamiae
Details: not given

Compound	MIC [µM]
CCCCOc1ccc(S(=O)(=O)N(Cc2c[nH]cn2)C(CC)C2CCCCC2)cc1 (stereo not given)	10 (≈ 4.34 µg/mL)
CCCCOc1ccc(S(=O)(=O)N(CCc2ccc(F)cc2)Cc2c[nH]cn2)cc1	> 10
CCCCOc1ccc(S(=O)(=O)N(Cc2c[nH]cn2)C(C(C)C)C(C)C)cc1	10 (≈ 4.08 µg/mL)
CCCCOc1ccc(S(=O)(=O)N(Cc2cncn2C)C(C)C2CCCCC2)cc1 (stereo not given)	10 (≈ 4.34 µg/mL)
OC(Cn1cncn1)(Cn1cncn1)c1ccc(F)cc1F [FLUCONAZOLE]	> 10

System: Trichophyton rubrum
Assay: Minimum inhibitory concentration of compound for antifungal activity against Trichophyton rubrum
Assay type: functional
Details: not given

Compound	MIC [µM]
CCCCOc1ccc(S(=O)(=O)N(Cc2c[nH]cn2)C(CC)C2CCCCC2)cc1 (stereo not given)	1 (≈ 0.434 µg/mL)
CCCCOc1ccc(S(=O)(=O)N(CCc2ccc(F)cc2)Cc2c[nH]cn2)cc1	1 (≈ 0.432 µg/mL)
CCCCOc1ccc(S(=O)(=O)N(Cc2c[nH]cn2)C(C(C)C)C(C)C)cc1	1 (≈ 0.408 µg/mL)
CCCCOc1ccc(S(=O)(=O)N(Cc2cncn2C)C(C)C2CCCCC2)cc1 (stereo not given)	1 (≈ 0.434 µg/mL)
OC(Cn1cncn1)(Cn1cncn1)c1ccc(F)cc1F [FLUCONAZOLE]	10 (≈ 3.06 µg/mL)

System: Saccharomyces cerevisiae
Assay: Antifungal activity against yeast expressed as negative log (pLAD value).
Assay type: functional
Details: not given

Compound	pLADy
CCCCOc1ccc(S(=O)(=O)N(Cc2c[nH]cn2)C(CC)C2CCCCC2)cc1 (stereo not given)	>6.8
CCCCOc1ccc(S(=O)(=O)N(CCc2ccc(F)cc2)Cc2c[nH]cn2)cc1	6.2
CCCCOc1ccc(S(=O)(=O)N(Cc2c[nH]cn2)C(C(C)C)C(C)C)cc1	6.7
CCCCOc1ccc(S(=O)(=O)N(Cc2cncn2C)C(C)C2CCCCC2)cc1 (stereo not given)	6.6

System: Sporothrix schenckii
Assay: Minimum inhibitory concentration of compound for antifungal activity against Sporothrix schenck ii
Assay type: functional
Details: not given

Compound	MIC [µM]
CCCCOc1ccc(S(=O)(=O)N(Cc2c[nH]cn2)C(CC)C2CCCCC2)cc1 (stereo not given)	> 10
CCCCOc1ccc(S(=O)(=O)N(CCc2ccc(F)cc2)Cc2c[nH]cn2)cc1	> 10
CCCCOc1ccc(S(=O)(=O)N(Cc2c[nH]cn2)C(C(C)C)C(C)C)cc1	> 10
CCCCOc1ccc(S(=O)(=O)N(Cc2cncn2C)C(C)C2CCCCC2)cc1 (stereo not given)	> 10
OC(Cn1cncn1)(Cn1cncn1)c1ccc(F)cc1F [FLUCONAZOLE]	> 10
